For series [1], the system named is self-complementary strands (5′-XCGCGCG). Description: dangling end thermal denaturation studies (base stacking) with self-complementary strands. The class given is physicochemical. The settings on record: dangling residue X in 5′-XCGCGCG; for Tm: 5.0 μM DNA strand, 1M NaCl, 10 mM phosphate buffer (pH 7.0), 0.1 mM EDTA, 280 nm; for ΔG°37 (fits): curve fits; for ΔTm: versus duplex with no dangling residue. As to the method:
Thermal Denaturation Studies. After the samples were prepared in melting buffer (1M NaCl, 10 mM phosphate buffer (pH 7.0) with 0.1 mM EDTA), they were heated to 95° C. and allowed to slowly cool at a rate of 1° C./min to 5° C. The melting studies were carried out in Teflon-stoppered 1 cm path length quartz cells on a Varian Cary 1 UV-vis spectophotometer equipped with thermoprogrammer. Absorbance was monitored at 280 nm for stacking and at 260 nm for base pairing. […] The data were analyzed by the melt curve processing program, MeltWin v. 3.0. Melting temperatures (Tm) were determined by computer-fit of the first derivative of absorbance with respect to 1/T. Uncertainty in Tm is estimated at ±0.5° C. based on repetitions of experiments. Free-energy values were derived by two methods: (1) computer-fitting the denaturation data with an algorithm employing linear sloping baselines, using the two-state approximation for melting. Fits were excellent, with χ^−2 values of 10^−6 or better. (2) Van't Hoff thermodynamic parameters were derived from linear plots of 1/Tm vs In[CT] by measuring Tm as a function of concentration.
Sequence Design. We incorporated all five phosphoramidites into three new sequence contexts each for further study of pairing and stacking properties. The first is a self-complementary sequence designed to form a hexamer duplex, with the nonnatural base analogue overhanging (dangling) at the 5′ ends (Table 2). This same sequence context has been used previously in several studies of DNA base stacking. The second and third contexts comprise a pair of 12mer sequences that form duplexes with well-behaved two-state behavior. One strand is pyrimidine-rich, while the other is purine-rich; we substituted each analogue at a central position of each strand to test two widely varied sequence contexts for pairing effects.
Base Stacking. DNA base stacking stability has been correlated with the size of compounds when mono-, bi-, tri-, and tetra-cyclic base analogues were compared. To test this with the present series, which varies in size by a smaller amount, we examined the short self-complementary oligonucleotides by thermal denaturation experiments. The self-complementary duplexes contained the modified nucleosides as a 5′ overhanging base.

Series [2] relates to DNA Pol I (Klenow fragment, exo-). Description: steady-state kinetics of single nucleotide insertions, thymidine analogues in the template. The series is classed as biochemical, E. coli. Set-up: efficiency: unit not given here. The settings on record: for rel. efficiency: relative to insertion of dATP opposite T. The method, then:
(§1) In vitro steady-state kinetics. As polymerase substrates we used 28 mer/23 mer template-primer duplexes having the sequence (5′-ACT GXT CTCCCTATAGTGAGTCGTATTA [SEQ ID NO:1])·(5′-TAATACGACTCACTATAGGGAGA [SEQ ID NO:2]). Kinetics were measured at 37° C. in a buffer containing 10 mM Mg^2+. The primer was 5′ end-labeled and was extended by the polymerase in the presence of a single dNTP species over varied concentration and time. Products of single nucleotide insertions were resolved from unreacted primer by 20% denaturing gel electrophoresis, and were quantitated by autoradiography. Details of the kinetics experiments are given in the Supporting Data.
(§2) We chose DNA polymerase I (Klenow fragment, exonuclease-deficient) as an ideal candidate for initial study, as it is enzymatically well-characterized among replicative enzymes, and yet is relatively small and acts as a single subunit. We carried out kinetics studies of single nucleotide insertions in the steady state, using a gel electrophoresis-based assay.
(§3) Data for single nucleotide insertion kinetics in the steady-state. The enzyme was the Klenow fragment of DNA pol I from E. coli (exonuclease deficient). Methods are as described above.

Series [3] has the same test system. Briefly: steady-state kinetics of single nucleotide insertions, incoming nucleotide analogues (dNTP/dXTP). The class given is biochemical, E. coli. The settings on record: for rel. efficiency: relative to insertion of dTTP opposite A. The method, then:
as §1, §2, §3

The mark [4] stands for this setting: Example 4: incorporating dATP opposite template thymidine analog.
Where [5] appears, read: insertion of dATP opposite template base, 37° C.
The mark [6] stands for this setting: insertion of dATP opposite template base, 37° C., 10 mM MgCl2, pH 7.5, normalized to lowest enzyme concentration.
[7] abbreviates: insertion of dATP opposite template base.
Setting [8] is: insertion of dCTP opposite template base, 37° C.
[9] abbreviates: insertion of dCTP opposite template base, 37° C., 10 mM MgCl2, pH 7.5, normalized to lowest enzyme concentration.
The mark [10] stands for this setting: insertion of dCTP opposite template base.
[11] abbreviates: insertion of dGTP opposite template base, 37° C., 10 mM MgCl2, pH 7.5, normalized to lowest enzyme concentration.
Where [12] appears, read: insertion of dGTP opposite template base.
The mark [13] stands for this setting: insertion of dTTP opposite template base, 37° C.
The mark [14] stands for this setting: insertion of dTTP opposite template base, 37° C., 10 mM MgCl2, pH 7.5, normalized to lowest enzyme concentration.
The mark [15] stands for this setting: insertion of dTTP opposite template base.
The mark [16] stands for this setting: dNTP inserted opposite template base A, 37° C.
[17] abbreviates: dNTP inserted opposite template base A, 37° C., 10 mM MgCl2, pH 7.5, normalized to lowest enzyme concentration.
Where [18] appears, read: dNTP inserted opposite template base A.
The mark [19] stands for this setting: dNTP inserted opposite template base C, 37° C.
[20] abbreviates: dNTP inserted opposite template base C, 37° C., 10 mM MgCl2, pH 7.5, normalized to lowest enzyme concentration.
[21] abbreviates: dNTP inserted opposite template base C.
The mark [22] stands for this setting: dNTP inserted opposite template base G, 37° C.
Where [23] appears, read: dNTP inserted opposite template base G, 37° C., 10 mM MgCl2, pH 7.5, normalized to lowest enzyme concentration.
[24] abbreviates: dNTP inserted opposite template base G.
The mark [25] stands for this setting: dNTP inserted opposite template base T, 37° C.
[26] abbreviates: dNTP inserted opposite template base T, 37° C., 10 mM MgCl2, pH 7.5, normalized to lowest enzyme concentration.
Where [27] appears, read: dNTP inserted opposite template base T.
Setting [28] is: Example 4: incorporating dXTP opposite adenine in a DNA template.

From US7473683B2, “Nonpolar thymidine analogs” (The Board of Trustees of the Leland Stanford Junior …, priority 2005, dated 2009) come the findings set out here.

By Tm is commonly meant the temperature at the midpoint of the melting transition. Broadly, the ΔTm is the change in melting temperature against a reference sample. The Km is the concentration of substrate that gives half-maximal velocity. On to `Cc1c[nH]c(=O)[nH]c1=O` [T, thymine, reference compound], for which the “ΔG°37 (van't Hoff)” value in series [1] is -9.1 ± 0.1 kcal/mol. Besides, the “ΔH° (van't Hoff)” value in series [1] was -54.4 ± 4.1 kcal/mol. Also, the “ΔS° (van't Hoff)” value in series [1] was −146 ± 13 cal/K · mol. Also, the “ΔΔG° stacking per base” value in series [1] was found to be 0.65 kcal/mol. For the same molecule, in series [1], the Tm worked out at 46.0 °C. The “ΔG°37 (fits)” value in series [1] is -9.1 ± 0.1 kcal/mol. Moreover, the ΔTm in series [1] was determined as 7.4 °C. The Km in series [2] (setting [4]) worked out at 2.6 ± 0.75 µM; in series [2] (setting [5]), 1.9 ± 0.5 µM; in series [2] (setting [8]), 46 ± 28 µM; in series [2] (setting [13]), 38 ± 38 µM. In addition, the Vmax in series [2] (setting [4]) was determined as 45.7931 ± 1.7743; in series [2] (setting [6]), 24 ± 1 % · m in^−1; in series [2] (setting [9]), 0.022 ± 0.006 % · m in^−1; in series [2] (setting [11]), 0.41 ± 0.15 % · m in^−1; in series [2] (setting [14]), 0.012 ± 0.004 % · m in^−1. Moreover, in series [2] (setting [4]), the efficiency entry is on record as “(1.86 ± 0.56) × 10^7”. The same molecule gave a Rel. efficiency in series [2] (Example 4: incorporating dATP opposite template thymidine analog, T template = 1) of 1. Also, the rel. efficiency in series [2] (setting [7]) is given as 1; in series [2] (setting [10]), 3.7 × 10^−5; in series [2] (setting [12]), 5.6 × 10^−4; in series [2] (setting [15]), 2.5 × 10^−5.

Turning to `Cc1cc(C2CC(O)C(COP(=O)(O)OP(=O)(O)OP(=O)(O)O)O2)c(I)cc1I` (stereo not shown) [dITP], the Km is 18 ± 2 µM in series [3] (setting [16]), 23 ± 1 µM in series [3] (setting [19]), 43 ± 7 µM in series [3] (setting [22]) and 37 ± 7 µM in series [3] (setting [25]). The Vmax came out at 1.8 ± 0.1 % · min^−1 in series [3] (setting [17]), 0.0023 ± 0.0004 % · min^−1 in series [3] (setting [20]), 0.0020 ± 0.0001 % · min^−1 in series [3] (setting [23]) and 0.23 ± 0.02 % · min^−1 in series [3] (setting [26]). Also, the rel. efficiency in series [3] (setting [18]) is 6.3 × 10^−3; in series [3] (setting [21]) it was 6.3 × 10^−6; in series [3] (setting [24]), 2.9 × 10^−6; in series [3] (setting [27]) it was 3.9 × 10^−4.

Regarding `Cc1cc(C2CC(O)C(COP(=O)(O)OP(=O)(O)OP(=O)(O)O)O2)c(Cl)cc1Cl` (stereo not shown) [dLTP], the “efficiency lower than for insertion of natural dTTP” value in series [3] (dNTP analog inserted opposite adenine) stood at 7 fold. The Michaelis-Menten constant (Km) came out at 18 ± 5 µM in series [3] (setting [16]), 160 ± 66 µM in series [3] (setting [19]), 110 ± 30 µM in series [3] (setting [22]) and 62 ± 21 µM in series [3] (setting [25]). In addition, the Vmax in series [3] (setting [17]) worked out at 39 ± 4 % · min^−1; in series [3] (setting [20]) it was 0.050 ± 0.010 % · min^−1; in series [3] (setting [23]), 0.035 ± 0.004 % · min^−1; in series [3] (setting [26]), 0.54 ± 0.10 % · min^−1. Also, the rel. efficiency is reported as 1.4 × 10^−1 in series [3] (setting [18]), 1.9 × 10^−5 in series [3] (setting [21]), 2.0 × 10^−5 in series [3] (setting [24]) and 5.4 × 10^−4 in series [3] (setting [27]).

As for `Cc1cn([C@H]2C[C@H](O)[C@@H](COP(=O)(O)OP(=O)(O)OP(=O)(O)O)O2)c(=O)[nH]c1=O` [dTTP, reference compound], the Km in series [3] (setting [28]) stood at 1.56 ± 1 µM; in series [3] (setting [16]), 1.9 ± 0.4 µM; in series [3] (setting [19]) it was 510 ± 400 µM; in series [3] (setting [22]) it was 140 ± 86 µM; in series [3] (setting [25]), 63 ± 18 µM. Also, the Vmax in series [3] (setting [28]) worked out at 30.70 ± 12.0; in series [3] (setting [17]), 30 ± 3 % · min^−1; in series [3] (setting [20]), 0.067 ± 0.040 % · min^−1; in series [3] (setting [23]), 0.42 ± 0.18 % · min^−1; in series [3] (setting [26]), 0.010 ± 0.002 % · min^−1. In addition, in series [3] (setting [28]), the efficiency result is “(2.29 ± 0.9) × 10^7”. The molecule also came in with a Rel. efficiency in series [3] (Example 4: incorporating dXTP opposite adenine in a DNA template, dTTP = 1) of 1. In addition, the rel. efficiency is on record as 1 in series [3] (setting [18]), 6.3 × 10^−6 in series [3] (setting [21]), 2.5 × 10^−4 in series [3] (setting [24]) and 1.0 × 10^−5 in series [3] (setting [27]).

As to difluorotoluene [reference compound], the “ΔG°37 (van't Hoff)” value in series [1] was -10.1 ± 0.0 kcal/mol. Besides, the “ΔH° (van't Hoff)” value in series [1] was -54.5 ± 0.9 kcal/mol. Also, the “ΔS° (van't Hoff)” value in series [1] is reported as −143 ± 3 cal/K · mol. The “ΔΔG° stacking per base” value in series [1] was found to be 1.15 kcal/mol. In series [1], the Tm was 52.4 °C. Besides, the “ΔG°37 (fits)” value in series [1] is -10.1 ± 0.0 kcal/mol. In addition, the thermal shift (ΔTm) in series [1] came out at 13.8 °C. Also, the Km in series [2] (setting [5]) stood at 9.4 ± 2.9 µM; in series [2] (setting [8]), 33 ± 11 µM; in series [2] (insertion of dGTP opposite template base, 37° C.), 36 ± 12 µM; in series [2] (setting [13]), 22 ± 13 µM. The Vmax is recorded as 24 ± 3 % · m in^−1 in series [2] (setting [6]), 0.071 ± 0.011 % · m in^−1 in series [2] (setting [9]), 0.0071 ± 0.0008 % · m in^−1 in series [2] (setting [11]) and 0.12 ± 0.03 % · m in^−1 in series [2] (setting [14]). The rel. efficiency in series [2] (setting [7]) is reported as 2.0 × 10^−1; in series [2] (setting [10]), 1.7 × 10^−4; in series [2] (setting [12]), 1.5 × 10^−5; in series [2] (setting [15]), 4.2 × 10^−4.
